Key:
[1] = target: XIAP-BIR2 (Homo sapiens (Human), UniProt P98170); assay: BIR binding assay (FRET competition), XIAP BIR2; details: FRET competition binding; read-out: XIAP BIR2 (pIC50) (converted)
Procedure, shortened: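 Compounds in a 15-point, 3-fold series competed with an AlexaFluor647 SMAC peptide (AVPIAQKSE, 200 nM) for 200 nM His-tagged XIAP-BIR2 over 60 min in pH 7.4 HEPES/CHAPS/DTT buffer. Eu-W1024 (2 nM) was then added for 30 min. IC50 and pIC50 were derived from the 615 nm/665 nm emission ratio by variable-slope fit.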

[2] = target: cIAP1-BIR2 (Homo sapiens (Human), UniProt Q13490); assay: BIR binding assay (FRET competition), cIAP1 BIR2
Procedure, shortened: (§1)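 Each domain is run separately at its own level: 50 nM cIAP1-BIR3, 100 nM XIAP-BIR3, 325 nM for cIAP1-BIR2 or cIAP2-BIR2. Probe is a 200 nM fluorescent SMAC peptide, and the value is IC50 from FRET competition.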

[3] = tested on: Jurkat HIV-luciferase clones; assay: Jurkat latency reversal assay; type: cell-based; details: Homo sapiens, 48 h; Jurkat latency reversal assay potency; read-out: Jurkat pEC50 (converted)
Procedure, shortened: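 Three pooled Jurkat reporter clones, each with one or two integrated HIV-luciferase proviruses, 5,000 cells/well; duplicate 14-point titrations starting at 10 μM; 48 h, 37° C, then Steady-Glo luminescence; four-parameter logistic analysis yields EC50 and percent maximal activation against DMSO vehicle.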

[4] = target: XIAP-BIR3 (Homo sapiens (Human), UniProt P98170); assay: BIR binding assay (FRET competition), XIAP BIR3; details: for XIAP BIR3 vs BIR2 separation window: fold separation (FS) for XIAP
Procedure, shortened: as §1

[5] = target: cIAP2-BIR2 (Homo sapiens (Human), UniProt Q13489); assay: BIR binding assay (FRET competition), cIAP2 BIR2
Procedure, shortened: as §1

[6] = target: cIAP2-BIR3 (Homo sapiens (Human), UniProt Q13489); assay: BIR binding assay (FRET competition), cIAP2 BIR3; details: for cIAP2 BIR3 vs BIR2 separation window: fold separation (FS) for cIAP2
[7] = target: cIAP1-BIR3 (Homo sapiens (Human), UniProt Q13490); assay: BIR binding assay (FRET competition), cIAP1 BIR3; details: for cIAP1 BIR3 vs BIR2 separation window: fold separation (FS) for cIAP1
Procedure, shortened: as §1

Chain of XIAP-BIR3 (P98170 241-356): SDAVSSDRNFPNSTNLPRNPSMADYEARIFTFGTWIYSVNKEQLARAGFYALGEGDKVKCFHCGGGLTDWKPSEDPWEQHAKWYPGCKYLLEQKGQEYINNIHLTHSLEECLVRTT
Chain of cIAP1-BIR2 (Q13490 173-257): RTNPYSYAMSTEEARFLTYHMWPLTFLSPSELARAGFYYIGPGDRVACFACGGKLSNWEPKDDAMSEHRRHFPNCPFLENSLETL
Chain of cIAP1-BIR3 (Q13490 253-363): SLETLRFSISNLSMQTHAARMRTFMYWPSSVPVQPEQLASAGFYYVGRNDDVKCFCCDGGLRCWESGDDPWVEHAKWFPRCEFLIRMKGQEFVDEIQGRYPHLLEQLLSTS
Chain of cIAP2-BIR2 (Q13489 158-242): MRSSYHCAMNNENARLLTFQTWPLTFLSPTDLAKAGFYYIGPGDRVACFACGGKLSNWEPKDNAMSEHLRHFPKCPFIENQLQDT
Chain of XIAP-BIR2 (P98170 124-240): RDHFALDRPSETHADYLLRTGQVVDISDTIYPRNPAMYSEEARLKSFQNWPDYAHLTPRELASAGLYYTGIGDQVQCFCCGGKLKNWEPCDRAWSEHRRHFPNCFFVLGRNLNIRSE
Chain of cIAP2-BIR3 (Q13489 238-349): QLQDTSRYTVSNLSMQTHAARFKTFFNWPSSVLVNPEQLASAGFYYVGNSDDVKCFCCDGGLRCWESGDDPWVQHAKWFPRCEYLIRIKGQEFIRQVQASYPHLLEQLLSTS

Row | Compound | IC50 [1] [nM] | IC50 [2] [nM] | EC50 [3] [nM] | IC50 [4] [nM] | XIAP BIR3 vs BIR2 separation window [4] | IC50 [5] [nM] | IC50 [6] [nM] | cIAP2 BIR3 vs BIR2 separation window [6] | IC50 [7] [nM] | cIAP1 BIR3 vs BIR2 separation window [7]
1 | C[C@@H]1CN(CC(=O)N2CC(C)(C)c3[nH]c(=O)c(Cc4ccc(F)cc4)cc32)[C@@H](CN2CCO[C@H](C(=O)NCC#CC#CCNC(=O)[C@@H]3CN(C[C@H]4CN[C@H](C)CN4CC(=O)N4CC(C)(C)c5[nH]c(=O)c(Cc6ccc(F)cc6)cc54)CCO3)C2)CN1 [Example 93, (2S,2'S)-N,N′-(hexa-2,4-diyne-1,6-diyl)bis(4-(((2R,5R)-1-(2-(6-(4-fluorobenzyl)-3,3-dimethyl-5-oxo-2,3,4,5-tetrahydro-1H-pyrrolo[3,2-b]pyridin-1-yl)-2-oxoethyl)-5-methylpiperazin-2-yl)methyl)morpholine-2-carboxamide)] | 10000 to 51300 | 22.4 to 1000 | 12.6 to 63.1 | 31.6 to 501 | ++++ (FS>10,000) | 1000 to 3160 | 7.94 to 15.8 | +++ (10,000>FS>1,000) | 7.94 to 15.8 | ++ (1,000>FS>100)
2 | C[C@@H]1CN(CC(=O)N2CC(C)(C)c3[nH]c(=O)c(Cc4ccc(F)cc4)cc32)[C@@H](CN2CCC(CN(C)C(=O)c3cccc(C(=O)N(C)CC4CCN(C[C@H]5CN[C@H](C)CN5CC(=O)N5CC(C)(C)c6[nH]c(=O)c(Cc7ccc(F)cc7)cc65)CC4)c3)CC2)CN1 [Example 95, N^1,N^3-bis((1-(((2R,5R)-1-(2-(6-(4-fluorobenzyl)-3,3-dimethyl-5-oxo-2,3,4,5-tetrahydro-1H-pyrrolo[3,2-b]pyridin-1-yl)-2-oxoethyl)-5-methylpiperazin-2-yl)methyl)piperidin-4-yl)methyl)-N^1,N^3-dimethylisophthalamide] | 10000 to 51300 | 1000 to 3160 | 63.1 to 316 | 7.94 to 15.8 | ++++ (FS>10,000) | 1000 to 3160 | 1.38 to 7.94 | +++ (10,000>FS>1,000) | 31.6 to 501 | ++ (1,000>FS>100)
3 | C[C@@H]1CN(CC(=O)N2CC(C)(C)c3[nH]c(=O)c(Cc4ccc(F)cc4)cc32)[C@@H](CN2CCC(CN(C)C(=O)c3ccc(C(=O)N(C)CC4CCN(C[C@H]5CN[C@H](C)CN5CC(=O)N5CC(C)(C)c6[nH]c(=O)c(Cc7ccc(F)cc7)cc65)CC4)cc3)CC2)CN1 [Example 96, N^1,N^4-bis((1-(((2R,5R)-1-(2-(6-(4-fluorobenzyl)-3,3-dimethyl-5-oxo-2,3,4,5-tetrahydro-1H-pyrrolo[3,2-b]pyridin-1-yl)-2-oxoethyl)-5-methylpiperazin-2-yl)methyl)piperidin-4-yl)methyl)-N^1,N^4-dimethylterephthalamide] | 10000 to 51300 | 1000 to 3160 | 63.1 to 316 | 7.94 to 15.8 | ++++ (FS>10,000) | 1000 to 3160 | 7.94 to 15.8 | +++ (10,000>FS>1,000) | 1.38 to 7.94 | +++ (10,000>FS>1,000)
4 | C[C@@H]1CN(CC(=O)N2CC(C)(C)c3[nH]c(=O)c(Cc4ccc(F)cc4)cc32)[C@@H](CN2CCC(CN(C)C(=O)Cc3ccc(C(=O)N(C)CC4CCN(C[C@H]5CN[C@H](C)CN5CC(=O)N5CC(C)(C)c6[nH]c(=O)c(Cc7ccc(F)cc7)cc65)CC4)cc3)CC2)CN1 [Example 97, N-((1-(((2R,5R)-1-(2-(6-(4-fluorobenzyl)-3,3-dimethyl-5-oxo-2,3,4,5-tetrahydro-1H-pyrrolo[3,2-b]pyridin-1-yl)-2-oxoethyl)-5-methylpiperazin-2-yl)methyl)piperidin-4-yl)methyl)-4-(2-(((1-(((2R,5R)-1-(2-(6-(4-fluorobenzyl)-3,3-dimethyl-5-oxo-2,3,4,5-tetrahydro-1H-pyrrolo[3,2-b]pyridin-1-yl)-2-oxoethyl)-5-methylpiperazin-2-yl)methyl)piperidin-4-yl)methyl)(methyl)amino)-2-oxoethyl)-N-methylbenzamide] | 10000 to 51300 | 1000 to 3160 | 63.1 to 316 | 7.94 to 15.8 | ++++ (FS>10,000) | 3160 to 10000 | 1.38 to 7.94 | +++ (10,000>FS>1,000) | 1.38 to 7.94 | ++++ (FS>10,000)
5 | C[C@@H]1CN(CC(=O)N2CC(C)(C)c3[nH]c(=O)c(Cc4ccc(F)cc4)cc32)[C@@H](CN2CCC(CN(C)C(=O)Cc3cccc(C(=O)N(C)CC4CCN(C[C@H]5CN[C@H](C)CN5CC(=O)N5CC(C)(C)c6[nH]c(=O)c(Cc7ccc(F)cc7)cc65)CC4)c3)CC2)CN1 [Example 98, N-((1-(((2R,5R)-1-(2-(6-(4-fluorobenzyl)-3,3-dimethyl-5-oxo-2,3,4,5-tetrahydro-1H-pyrrolo[3,2-b]pyridin-1-yl)-2-oxoethyl)-5-methylpiperazin-2-yl)methyl)piperidin-4-yl)methyl)-3-(2-(((1-(((2R,5R)-1-(2-(6-(4-fluorobenzyl)-3,3-dimethyl-5-oxo-2,3,4,5-tetrahydro-1H-pyrrolo[3,2-b]pyridin-1-yl)-2-oxoethyl)-5-methylpiperazin-2-yl)methyl)piperidin-4-yl)methyl)(methyl)amino)-2-oxoethyl)-N-methylbenzamide] | 10000 to 51300 | 1000 to 3160 | 63.1 to 316 | 7.94 to 15.8 | ++++ (FS>10,000) | 10000 to 51300 | 1.38 to 7.94 | +++ (10,000>FS>1,000) | 1.38 to 7.94 | +++ (10,000>FS>1,000)
6 | C[C@@H]1CN(CC(=O)N2CC(C)(C)c3[nH]c(=O)c(Cc4ccc(F)cc4)cc32)[C@@H](CN2CCC(CN(C)C(=O)Cc3ccc(CC(=O)N(C)CC4CCN(C[C@H]5CN[C@H](C)CN5CC(=O)N5CC(C)(C)c6[nH]c(=O)c(Cc7ccc(F)cc7)cc65)CC4)cc3)CC2)CN1 [Example 99, 2,2′-(1,4-phenylene)bis(N-((1-(((2R,5R)-1-(2-(6-(4-fluorobenzyl)-3,3-dimethyl-5-oxo-2,3,4,5-tetrahydro-1H-pyrrolo[3,2-b]pyridin-1-yl)-2-oxoethyl)-5-methylpiperazin-2-yl)methyl)piperidin-4-yl)methyl)-N-methylacetamide)] | 10000 to 51300 | 3160 to 10000 | 63.1 to 316 | 7.94 to 15.8 | ++++ (FS>10,000) | 3160 to 10000 | 7.94 to 15.8 | +++ (10,000>FS>1,000) | 1.38 to 7.94 | +++ (10,000>FS>1,000)
7 | C[C@@H]1CN(CC(=O)N2CC(C)(C)c3[nH]c(=O)c(Cc4ccc(F)cc4)cc32)[C@@H](CN2CCC(CN(C)Cc3ccc(CN(C)CC4CCN(C[C@H]5CN[C@H](C)CN5CC(=O)N5CC(C)(C)c6[nH]c(=O)c(Cc7ccc(F)cc7)cc65)CC4)cc3)CC2)CN1 [Example 100, 1,1′-(2,2′-((3R,3′R,6R,6′R)-(((((1,4-phenylenebis(methylene))bis(methylazanediyl))bis(methylene))bis(piperidine-4,1-diyl))bis(methylene))bis(3-methylpiperazine-6,1-diyl))bis(acetyl))bis(6-(4-fluorobenzyl)-3,3-dimethyl-1,2,3,4-tetrahydro-5H-pyrrolo[3,2-b]pyridin-5-one)] | 10000 to 51300 | 1000 to 3160 | 0.49 to 12.6 | 15.8 to 31.6 | ++++ (FS>10,000) | 3160 to 10000 | 7.94 to 15.8 | +++ (10,000>FS>1,000) | 7.94 to 15.8 | +++ (10,000>FS>1,000)
8 | C[C@@H]1CN(CC(=O)N2CC(C)(C)c3[nH]c(=O)c(Cc4ccc(F)cc4)cc32)[C@@H](CN2CCC(CNC(=O)c3ccc(C(=O)NCC4CCN(C[C@H]5CN[C@H](C)CN5CC(=O)N5CC(C)(C)c6[nH]c(=O)c(Cc7ccc(F)cc7)cc65)CC4)cc3)CC2)CN1 [Example 101, N^1,N^4-bis((1-(((2R,5R)-1-(2-(6-(4-fluorobenzyl)-3,3-dimethyl-5-oxo-2,3,4,5-tetrahydro-1H-pyrrolo[3,2-b]pyridin-1-yl)-2-oxoethyl)-5-methylpiperazin-2-yl)methyl)piperidin-4-yl)methyl)terephthalamide] | 10000 to 51300 | 3160 to 10000 | 63.1 to 316 | 7.94 to 15.8 | ++++ (FS>10,000) | 3160 to 10000 | 1.38 to 7.94 | ++++ (FS>10,000) | 1.38 to 7.94 | +++ (10,000>FS>1,000)
